Drawing on ChEMBL document CHEMBL3244206, “Quinazolines as inhibitors of dihydrofolate reductase. 4. Classical analogues of folic and isofolic acids” (J Med Chem, 1977), this text covers IC50, survival and Activity for 15 compounds.

The first series has as its target T1, Dihydrofolate reductase (Enterococcus faecium, UniProt P00380).
T1 sequence (P00380 whole entry): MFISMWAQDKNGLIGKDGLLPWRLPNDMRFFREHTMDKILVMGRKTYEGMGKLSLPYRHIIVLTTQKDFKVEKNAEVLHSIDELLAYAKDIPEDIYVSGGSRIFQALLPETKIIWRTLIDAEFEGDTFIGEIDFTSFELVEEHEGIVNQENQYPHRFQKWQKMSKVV
In words: Inhibition of Streptococcus faecium dihydrofolate reductase using dihydrofolate as substrate. As to conditions: read-out: I50.
Regarding `Nc1nc(O)c2cc(NCc3ccc(C(=O)N[C@@H](CCC(=O)O)C(=O)O)cc3)ccc2n1`, the IC50 stood at 22000 nM.
Same read-out and setting: for `CCOC(=O)CC[C@H](NC(=O)c1ccc(NCc2ccc3nc(N)nc(N)c3c2Cl)cc1)C(=O)OCC` the value was 1.7 nM.
The same measure, in the same setting: then `Nc1nc(N)c2c(Cl)c(CNc3ccc(C(=O)N[C@@H](CCC(=O)O)C(=O)O)cc3)ccc2n1`, with 0.7 nM; and `Nc1nc(N)c2cc(NCc3ccc(C(=O)N[C@@H](CCC(=O)O)C(=O)O)cc3)ccc2n1`, with 32 nM.
On to `CCOC(=O)CC[C@H](NC(=O)c1ccc(CNc2ccc3nc(N)nc(N)c3c2C)cc1)C(=O)OCC`, for which the IC50 was 3.9 nM.
Same read-out and setting: for `CCOC(=O)CC[C@H](NC(=O)c1ccc(CNc2ccc3nc(N)nc(N)c3c2)cc1)C(=O)OCC` the value was 32 nM; for `CCOC(=O)CC[C@H](NC(=O)c1ccc(CNc2ccc3nc(N)nc(O)c3c2C)cc1)C(=O)OCC`, 115000 nM.
On the same count and under the same terms, for `Cc1c(CNc2ccc(C(=O)N[C@@H](CCC(=O)O)C(=O)O)cc2)ccc2nc(N)nc(N)c12` the value was 2.2 nM; for `Cc1c(NCc2ccc(C(=O)N[C@@H](CCC(=O)O)C(=O)O)cc2)ccc2nc(N)nc(O)c12`, 5900 nM.
Same read-out and setting: then `CCOC(=O)CC[C@H](NC(=O)c1ccc(NCc2ccc3nc(N)nc(N)c3c2C)cc1)C(=O)OCC`, with 2.4 nM.
In the case of `Cc1c(NCc2ccc(C(=O)N[C@@H](CCC(=O)O)C(=O)O)cc2)ccc2nc(N)nc(N)c12`, the IC50 was 8.3 nM.
Same read-out and setting: for `CCOC(=O)CC[C@H](NC(=O)c1ccc(CNc2ccc3nc(N)nc(O)c3c2)cc1)C(=O)OCC` the value was 24000 nM.
The same measure, in the same setting: for `Cc1c(CNc2ccc(C(=O)N[C@@H](CC(=O)O)C(=O)O)cc2)ccc2ncnc(N)c12` [METHASQUIN] the value was 2.5 nM.

A further series concerns L1210. In words: Antitumor activity against mouse L1210 cells allografted in mouse assessed as increase in survival at 75 mg/kg administered on day 1 relative to control. The series is classed as functional. The note with it: L1210, 24 h.
As to `Nc1nc(N)c2cc(CN(C=O)c3ccc(C(=O)N[C@@H](CCC(=O)O)C(=O)O)cc3)ccc2n1`, the survival at 75 mg/kg stood at 0%.

In a further series the test system is L1210. The series can be described thus: Antitumor activity against mouse L1210 cells allografted in mouse assessed as increase in survival at 100 mg/kg administered on day 1 to 5 relative to control. The note with it: L1210, 24 h. Type of series: functional.
`Nc1nc(O)c2cc(CN(C=O)c3ccc(C(=O)N[C@@H](CCC(=O)O)C(=O)O)cc3)ccc2n1`: the survival at 100 mg/kg stood at 25%.

Another series relates to L1210. In words: Antitumor activity against mouse L1210 cells allografted in mouse assessed as increase in survival at 100 mg/kg administered on day 1 to 3 relative to control. The series is classed as functional. The note with it: L1210, 24 h.
With `Nc1nc(O)c2cc(CN(C=O)c3ccc(C(=O)N[C@@H](CCC(=O)O)C(=O)O)cc3)ccc2n1`, the survival at 100 mg/kg came out at 19%.

The test system of another series is L1210. The series can be described thus: Antitumor activity against mouse L1210 cells allografted in mouse assessed as increase in survival at 200 mg/kg administered on day 1 to 3 relative to control. Type of series: functional. As to conditions: L1210, 24 h.
For the compound `Nc1nc(O)c2cc(CN(C=O)c3ccc(C(=O)N[C@@H](CCC(=O)O)C(=O)O)cc3)ccc2n1`, the survival at 200 mg/kg worked out at 15%.

In the next series the test system is Mus musculus. The series can be described thus: Toxicity in mouse allografted with mouse L1210 cells assessed as mortality at 75 mg/kg administered on day 1 measured on day 2. The arrangement: dose 75 mg/kg. Type of series: organism-based. As to conditions: in vivo.
With `Nc1nc(N)c2cc(CN(C=O)c3ccc(C(=O)N[C@@H](CCC(=O)O)C(=O)O)cc3)ccc2n1`, the Activity result was “Toxic”.
